Reference: ChEMBL document CHEMBL1201862, “PubChem BioAssay data set” (2004)
Activity calls are given as the source filed them.

Tests used:
[1] = tested on: HeLa; assay: HeLa cell cytotoxicity, dose response, cytotoxicity control for MITF activator project, CellTiter-Glo luminescence, cherry-pick samples (AID 540259); format: functional, cell-based; conditions: Homo sapiens
[2] = molecular target: DNA topoisomerase (Yersinia pestis, UniProt A0A2S9PM60); assay: Y. pestis Topo-I inhibitors, cleavage product readout, dose response, biochemical, cherry-pick (AID 588525)
[3] = molecular target: T1, Probable nicotinate-nucleotide adenylyltransferase (Staphylococcus aureus (strain N315), UniProt P65502); format: functional, Staphylococcus aureus subsp. aureus N315; conditions: read-out: IC50_Mean;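 on IC50 Mean: confirmatory dose-response retesting of NadD inhibitor hits first found in an ultra-high-throughput screen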
[4] = molecular target: T1, Probable nicotinate-nucleotide adenylyltransferase; format: functional, Staphylococcus aureus subsp. aureus N315
[5] = molecular target: Beta-arrestin-1 (Homo sapiens, UniProt P49407); assay: inhibitors of arrestin peptide binding to AP2, dose response, biochemical, cherry pick 1, beta2-adaptin appendage, flow cytometry (AID 588783); format: functional
[6] = growth suppression of PTEN-null colon cells, dose response, cell-based, HCT116 PTEN knockout (AID 1047); format: functional;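 further: HCT116 colon tumor cells with PTEN knocked out; cells exposed to compound for 60 hours before readout; potency for loss of cell viability measured by luminescence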
[7] = molecular target: C-C chemokine receptor type 6 (Homo sapiens, UniProt P51684); assay: CCR6 receptor antagonists, dose response, cell-based, luminescent beta-arrestin readout (AID 504728); format: functional
[8] = molecular target: Nonstructural protein 1 (Influenza A virus, UniProt Q194T2); format: functional, Influenza A virus (A/California/07/2009(H1N1))
[9] = molecular target: E3 ubiquitin-protein ligase Mdm2 (Homo sapiens, UniProt Q00987); assay: enhancers of MDM2-luciferase reporter signal, concentration-effect titration, project on inhibitors of MDM2 ubiquitin ligase, cellular assay, luminescent readout, 384-well plate format (AID 1394); format: functional;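 further: MDM2 E3 inhibitors raise luminescence so EC50 is for signal enhancement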
[10] = molecular target: Luciferin 4-monooxygenase (Photinus pyralis, UniProt P08659); assay: Counter Screen for Luciferase-based Assay Positives. [Related pubchem assays: 620, 618, 411 ]
[11] = molecular target: T2, Hexokinase HKDC1 (Homo sapiens, UniProt Q2TB90); assay: HKDC1 hexokinase inhibitors, dose response, biochemical, W721R variant (AID 504729); format: functional
T2 sequence (Q2TB90 whole entry): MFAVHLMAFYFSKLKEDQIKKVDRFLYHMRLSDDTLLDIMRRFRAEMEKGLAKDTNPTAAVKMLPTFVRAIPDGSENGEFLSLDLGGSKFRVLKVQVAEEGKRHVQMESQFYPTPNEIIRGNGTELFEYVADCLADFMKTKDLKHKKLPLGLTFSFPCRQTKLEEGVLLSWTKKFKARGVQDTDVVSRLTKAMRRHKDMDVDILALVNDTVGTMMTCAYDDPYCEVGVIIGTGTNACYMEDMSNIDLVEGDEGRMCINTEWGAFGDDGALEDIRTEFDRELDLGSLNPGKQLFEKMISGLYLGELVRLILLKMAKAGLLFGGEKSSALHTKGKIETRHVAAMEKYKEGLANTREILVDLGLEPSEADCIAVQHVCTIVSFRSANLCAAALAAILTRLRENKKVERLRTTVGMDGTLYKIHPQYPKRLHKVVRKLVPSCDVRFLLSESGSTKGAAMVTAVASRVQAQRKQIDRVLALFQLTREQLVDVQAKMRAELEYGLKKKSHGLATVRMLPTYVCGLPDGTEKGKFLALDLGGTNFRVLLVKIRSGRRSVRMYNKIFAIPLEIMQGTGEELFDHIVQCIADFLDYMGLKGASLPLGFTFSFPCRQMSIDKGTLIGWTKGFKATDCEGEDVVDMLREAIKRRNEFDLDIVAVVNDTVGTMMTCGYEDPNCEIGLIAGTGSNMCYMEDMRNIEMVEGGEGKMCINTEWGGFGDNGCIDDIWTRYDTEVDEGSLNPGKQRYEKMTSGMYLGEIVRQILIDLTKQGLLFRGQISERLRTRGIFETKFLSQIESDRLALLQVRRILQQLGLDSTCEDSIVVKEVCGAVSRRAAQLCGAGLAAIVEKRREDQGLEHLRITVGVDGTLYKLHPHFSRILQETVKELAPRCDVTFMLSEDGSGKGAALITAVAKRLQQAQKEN

[12] = growth suppression of beta-catenin-knockout colon cells, dose response, cell-based, HCT116, human colon tumor (AID 1045); format: functional;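 further: HCT116 colon tumor cells with beta catenin knocked out; cells exposed to compound for 60 hours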
[13] = molecular target: T3, Protein Tat (Human immunodeficiency virus type 1 group M subtype B (isolate HXB2)(HIV-1), UniProt P04608); format: functional;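 further: tat binding to TAR RNA read out by fluorescence polarization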
T3 sequence (P04608 whole entry): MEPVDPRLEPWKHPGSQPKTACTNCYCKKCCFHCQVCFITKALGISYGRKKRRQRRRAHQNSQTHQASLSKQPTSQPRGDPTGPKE

[14] = molecular target: Beta-galactosidase (Escherichia coli, UniProt Q8VNN2); assay: beta-galactosidase enzyme inhibitors and activators, dose response, artefact control for CCR6 antagonist project, biochemical, E. coli enzyme, set 3 (AID 504712); format: functional
[15] = molecular target: T4, Replicative DNA helicase DnaB (Mycobacterium tuberculosis, UniProt P9WMR3); assay: DnaB intein splicing inhibitors, dose response, biochemical, cell-free fluorescence (AID 449749); format: functional
T4 sequence (P9WMR3 whole entry): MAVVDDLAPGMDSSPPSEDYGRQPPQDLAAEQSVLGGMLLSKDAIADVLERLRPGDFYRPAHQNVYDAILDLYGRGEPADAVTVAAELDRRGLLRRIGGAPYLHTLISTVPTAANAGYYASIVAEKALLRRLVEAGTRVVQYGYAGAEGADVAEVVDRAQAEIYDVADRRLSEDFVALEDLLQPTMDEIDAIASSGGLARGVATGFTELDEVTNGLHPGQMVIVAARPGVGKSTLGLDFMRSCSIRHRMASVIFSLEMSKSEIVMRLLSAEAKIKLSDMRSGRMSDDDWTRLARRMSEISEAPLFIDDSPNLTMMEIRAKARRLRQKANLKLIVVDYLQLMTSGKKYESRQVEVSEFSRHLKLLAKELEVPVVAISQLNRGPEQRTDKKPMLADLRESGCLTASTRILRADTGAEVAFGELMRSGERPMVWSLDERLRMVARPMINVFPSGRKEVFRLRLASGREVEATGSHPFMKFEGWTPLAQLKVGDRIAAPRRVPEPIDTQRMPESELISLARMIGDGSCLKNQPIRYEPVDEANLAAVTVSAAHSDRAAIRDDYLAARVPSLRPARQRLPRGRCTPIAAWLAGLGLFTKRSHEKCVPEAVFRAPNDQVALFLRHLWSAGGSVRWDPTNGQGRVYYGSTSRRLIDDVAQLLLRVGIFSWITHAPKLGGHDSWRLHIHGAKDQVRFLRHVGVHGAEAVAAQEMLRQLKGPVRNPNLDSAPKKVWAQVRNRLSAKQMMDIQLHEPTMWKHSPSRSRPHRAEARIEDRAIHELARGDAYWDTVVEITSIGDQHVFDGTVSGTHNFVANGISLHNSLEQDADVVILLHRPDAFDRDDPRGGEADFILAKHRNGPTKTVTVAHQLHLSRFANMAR

[16] = molecular target: T5, Protein RecA (Mycobacterium tuberculosis, UniProt P9WHJ3); assay: Fluorescence Cell-Free Homogeneous Dose Retest to Identify Inhibitors of RecA-Intein Splicing Activity. [Related pubchem assays (depositor defined):AID2097, AID2223, AID489010, AID492950]; format: functional
T5 sequence (P9WHJ3 whole entry): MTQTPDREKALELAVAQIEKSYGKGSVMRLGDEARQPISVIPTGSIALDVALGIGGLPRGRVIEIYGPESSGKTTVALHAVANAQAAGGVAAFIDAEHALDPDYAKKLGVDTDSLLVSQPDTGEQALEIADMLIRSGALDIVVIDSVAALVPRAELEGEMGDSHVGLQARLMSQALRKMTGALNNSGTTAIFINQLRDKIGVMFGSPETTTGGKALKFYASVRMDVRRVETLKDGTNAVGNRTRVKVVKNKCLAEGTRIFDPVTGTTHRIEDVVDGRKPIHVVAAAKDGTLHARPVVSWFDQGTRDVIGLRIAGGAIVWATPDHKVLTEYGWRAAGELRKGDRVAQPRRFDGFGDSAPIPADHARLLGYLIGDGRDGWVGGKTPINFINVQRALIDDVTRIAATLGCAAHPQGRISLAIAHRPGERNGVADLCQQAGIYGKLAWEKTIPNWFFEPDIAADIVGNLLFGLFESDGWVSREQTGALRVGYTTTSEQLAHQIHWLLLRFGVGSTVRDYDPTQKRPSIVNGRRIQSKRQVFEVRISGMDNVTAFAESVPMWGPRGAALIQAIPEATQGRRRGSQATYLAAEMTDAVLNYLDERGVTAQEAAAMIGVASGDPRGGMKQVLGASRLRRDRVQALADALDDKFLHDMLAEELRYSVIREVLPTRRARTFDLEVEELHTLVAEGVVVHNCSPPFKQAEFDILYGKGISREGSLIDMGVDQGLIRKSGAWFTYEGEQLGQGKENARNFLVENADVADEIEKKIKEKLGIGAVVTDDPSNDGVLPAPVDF

[17] = tested on: HT-1080; assay: cytotoxicity in HT1080 fibrosarcoma cells, cell-based, fluorescence readout (AID 620); format: functional; conditions: Homo sapiens
[18] = molecular target: Eukaryotic translation initiation factor 4E (Mus musculus, UniProt P63073); assay: eIF4E–eIF4G protein interaction inhibitors, dose response, biochemical, TR-FRET (AID 855); format: functional;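 further: potency for disrupting eIF4E binding to eIF4GI seen as loss of FRET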
Sequence of Eukaryotic translation initiation factor 4E (P63073 whole entry): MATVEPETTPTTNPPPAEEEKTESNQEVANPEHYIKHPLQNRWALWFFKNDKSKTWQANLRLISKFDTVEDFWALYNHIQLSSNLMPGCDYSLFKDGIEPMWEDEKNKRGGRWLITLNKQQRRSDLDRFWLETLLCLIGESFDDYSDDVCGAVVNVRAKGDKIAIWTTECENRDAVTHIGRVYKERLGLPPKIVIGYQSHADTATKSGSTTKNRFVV

T1 sequence (P65502 whole entry): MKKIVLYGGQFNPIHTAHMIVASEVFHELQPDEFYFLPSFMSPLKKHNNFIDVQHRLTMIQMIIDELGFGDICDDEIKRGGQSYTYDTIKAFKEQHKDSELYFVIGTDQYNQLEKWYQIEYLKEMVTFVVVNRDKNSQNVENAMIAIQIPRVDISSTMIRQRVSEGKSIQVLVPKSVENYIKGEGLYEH
Sequence of Beta-arrestin-1 (P49407 whole entry): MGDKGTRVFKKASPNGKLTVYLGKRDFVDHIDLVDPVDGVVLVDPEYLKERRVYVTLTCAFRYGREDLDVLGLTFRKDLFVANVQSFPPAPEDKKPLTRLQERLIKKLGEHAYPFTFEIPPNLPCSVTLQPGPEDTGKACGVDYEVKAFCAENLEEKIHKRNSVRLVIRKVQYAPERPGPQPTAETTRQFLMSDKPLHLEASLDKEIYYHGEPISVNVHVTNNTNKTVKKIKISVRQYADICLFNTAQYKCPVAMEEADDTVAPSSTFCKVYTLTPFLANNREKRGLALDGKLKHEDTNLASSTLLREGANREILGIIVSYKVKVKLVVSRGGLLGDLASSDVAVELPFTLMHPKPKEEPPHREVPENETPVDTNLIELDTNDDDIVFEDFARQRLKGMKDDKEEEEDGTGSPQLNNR
Sequence of Nonstructural protein 1 (Q194T2 whole entry): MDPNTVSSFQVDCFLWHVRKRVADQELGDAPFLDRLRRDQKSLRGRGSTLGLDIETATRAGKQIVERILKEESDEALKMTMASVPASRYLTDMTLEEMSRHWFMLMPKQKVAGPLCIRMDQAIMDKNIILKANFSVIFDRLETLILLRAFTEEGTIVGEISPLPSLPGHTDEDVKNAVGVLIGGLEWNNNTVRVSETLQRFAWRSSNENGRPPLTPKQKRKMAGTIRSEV
Sequence of DNA topoisomerase (A0A2S9PM60 whole entry): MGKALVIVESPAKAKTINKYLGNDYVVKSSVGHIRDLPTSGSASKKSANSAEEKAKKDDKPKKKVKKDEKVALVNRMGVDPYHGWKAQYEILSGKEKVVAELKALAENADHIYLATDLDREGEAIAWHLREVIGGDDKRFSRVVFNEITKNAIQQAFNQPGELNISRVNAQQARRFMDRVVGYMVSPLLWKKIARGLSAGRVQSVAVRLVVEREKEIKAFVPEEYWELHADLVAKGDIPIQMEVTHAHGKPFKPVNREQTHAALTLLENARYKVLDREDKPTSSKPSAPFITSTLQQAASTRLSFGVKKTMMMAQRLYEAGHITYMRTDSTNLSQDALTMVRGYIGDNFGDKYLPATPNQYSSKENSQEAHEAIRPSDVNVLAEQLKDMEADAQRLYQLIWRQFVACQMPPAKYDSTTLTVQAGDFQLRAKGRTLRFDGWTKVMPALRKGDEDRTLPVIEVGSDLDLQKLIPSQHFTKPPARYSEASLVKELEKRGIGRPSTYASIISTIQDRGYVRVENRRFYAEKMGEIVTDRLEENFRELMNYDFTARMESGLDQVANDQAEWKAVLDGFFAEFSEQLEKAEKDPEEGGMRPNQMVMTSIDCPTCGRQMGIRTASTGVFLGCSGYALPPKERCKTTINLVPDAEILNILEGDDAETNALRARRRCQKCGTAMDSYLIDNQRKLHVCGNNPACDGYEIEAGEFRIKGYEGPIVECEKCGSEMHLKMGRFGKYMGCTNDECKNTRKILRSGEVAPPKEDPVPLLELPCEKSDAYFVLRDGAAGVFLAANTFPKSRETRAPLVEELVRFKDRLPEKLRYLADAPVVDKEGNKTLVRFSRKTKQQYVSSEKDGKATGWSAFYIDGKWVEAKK
Sequence of E3 ubiquitin-protein ligase Mdm2 (Q00987 whole entry): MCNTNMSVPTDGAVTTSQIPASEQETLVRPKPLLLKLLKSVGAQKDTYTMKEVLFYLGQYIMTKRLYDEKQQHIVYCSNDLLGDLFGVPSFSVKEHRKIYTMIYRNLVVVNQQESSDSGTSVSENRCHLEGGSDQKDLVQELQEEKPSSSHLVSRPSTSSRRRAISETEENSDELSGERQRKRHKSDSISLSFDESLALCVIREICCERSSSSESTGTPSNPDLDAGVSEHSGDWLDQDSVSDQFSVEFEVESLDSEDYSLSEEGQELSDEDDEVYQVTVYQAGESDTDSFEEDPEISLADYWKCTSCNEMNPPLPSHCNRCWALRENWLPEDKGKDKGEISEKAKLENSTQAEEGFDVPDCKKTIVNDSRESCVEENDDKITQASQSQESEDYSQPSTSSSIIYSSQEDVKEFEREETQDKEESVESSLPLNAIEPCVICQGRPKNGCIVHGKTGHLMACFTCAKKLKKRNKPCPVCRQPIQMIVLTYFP
Sequence of Beta-galactosidase (Q8VNN2 whole entry): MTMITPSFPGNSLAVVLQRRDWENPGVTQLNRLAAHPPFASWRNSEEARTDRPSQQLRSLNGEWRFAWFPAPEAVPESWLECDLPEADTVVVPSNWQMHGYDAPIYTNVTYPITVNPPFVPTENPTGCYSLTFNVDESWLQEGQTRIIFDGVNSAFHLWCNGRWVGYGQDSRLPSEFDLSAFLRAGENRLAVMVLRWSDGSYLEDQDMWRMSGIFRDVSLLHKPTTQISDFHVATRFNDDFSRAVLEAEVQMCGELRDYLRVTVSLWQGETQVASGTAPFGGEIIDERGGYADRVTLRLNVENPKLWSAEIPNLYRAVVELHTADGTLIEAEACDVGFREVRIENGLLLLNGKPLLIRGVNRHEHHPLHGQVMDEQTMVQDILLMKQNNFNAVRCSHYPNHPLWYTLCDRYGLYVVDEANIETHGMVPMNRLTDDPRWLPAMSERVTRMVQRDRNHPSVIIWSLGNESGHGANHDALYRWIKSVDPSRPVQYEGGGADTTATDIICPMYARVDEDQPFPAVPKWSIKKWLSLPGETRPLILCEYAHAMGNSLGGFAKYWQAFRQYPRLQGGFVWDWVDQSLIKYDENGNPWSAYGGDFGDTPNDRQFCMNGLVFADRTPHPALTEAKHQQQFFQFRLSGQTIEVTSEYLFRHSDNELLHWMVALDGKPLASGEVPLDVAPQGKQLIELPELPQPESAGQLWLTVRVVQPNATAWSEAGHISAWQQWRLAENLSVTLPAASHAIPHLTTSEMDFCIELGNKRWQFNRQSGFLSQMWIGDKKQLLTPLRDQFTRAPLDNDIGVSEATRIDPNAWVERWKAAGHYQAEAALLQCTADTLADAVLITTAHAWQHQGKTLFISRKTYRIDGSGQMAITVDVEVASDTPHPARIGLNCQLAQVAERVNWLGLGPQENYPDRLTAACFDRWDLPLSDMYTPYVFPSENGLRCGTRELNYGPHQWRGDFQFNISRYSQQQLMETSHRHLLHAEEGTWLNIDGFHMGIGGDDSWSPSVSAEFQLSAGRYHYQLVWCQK
Sequence of C-C chemokine receptor type 6 (P51684 whole entry): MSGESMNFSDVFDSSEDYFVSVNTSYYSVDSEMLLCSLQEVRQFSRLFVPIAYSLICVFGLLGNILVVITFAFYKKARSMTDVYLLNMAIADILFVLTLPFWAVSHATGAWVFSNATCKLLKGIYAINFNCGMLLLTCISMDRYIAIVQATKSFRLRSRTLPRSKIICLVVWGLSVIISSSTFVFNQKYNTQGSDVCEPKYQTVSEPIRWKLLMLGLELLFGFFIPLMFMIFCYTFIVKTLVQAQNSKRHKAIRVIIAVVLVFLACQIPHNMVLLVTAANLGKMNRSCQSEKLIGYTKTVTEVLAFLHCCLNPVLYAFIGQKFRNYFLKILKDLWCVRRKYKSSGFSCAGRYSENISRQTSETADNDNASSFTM
Sequence of Luciferin 4-monooxygenase (P08659 whole entry): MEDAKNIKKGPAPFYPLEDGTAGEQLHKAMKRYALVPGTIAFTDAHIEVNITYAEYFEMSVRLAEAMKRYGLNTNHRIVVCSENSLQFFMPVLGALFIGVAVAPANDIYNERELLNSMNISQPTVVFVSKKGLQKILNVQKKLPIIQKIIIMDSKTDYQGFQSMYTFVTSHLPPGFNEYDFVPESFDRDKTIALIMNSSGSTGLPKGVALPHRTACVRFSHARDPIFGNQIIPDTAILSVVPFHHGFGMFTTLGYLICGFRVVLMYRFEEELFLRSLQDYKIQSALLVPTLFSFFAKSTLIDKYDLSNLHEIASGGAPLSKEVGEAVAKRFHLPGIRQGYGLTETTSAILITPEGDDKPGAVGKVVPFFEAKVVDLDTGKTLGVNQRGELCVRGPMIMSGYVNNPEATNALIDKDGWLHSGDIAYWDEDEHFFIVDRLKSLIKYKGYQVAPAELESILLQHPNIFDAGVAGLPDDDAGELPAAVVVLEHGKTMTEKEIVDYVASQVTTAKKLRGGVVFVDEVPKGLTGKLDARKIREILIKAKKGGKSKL

Q: Which AC50 [1] does the source give for `Cc1ccn2c(C(=O)c3ccc(Cl)cc3)cnc2c1` here?
A: 37 µM (active)

Q: Which results are given for `O=C(Nc1ccn(CCCN(CCCn2ccc(NC(=O)OCc3ccccc3)nc2=O)CCc2cc3ccccc3[nH]2)c(=O)n1)OCc1ccccc1`?
A: AC50 [2]: 2.54 µM (active); IC50 [3]: 40.7 µM (active); IC50 [4]: 15.9 µM (active)

Q: Which results are given for `O=C1C(Cl)=C(N2CCCCC2)C(=O)C(Cl)=C1c1cnc(N2CCCCC2)s1`?
A: IC50 [5]: 14.1 µM (active); EC50 [6]: 3.45 µM (active); IC50 [7]: > 66.6 µM (inactive); IC50 [8]: 21.4 µM (active); EC50 [9]: 2.42 µM (active); EC50 [10]: 4.4 µM (active); IC50 [11]: 11.4 µM (active); EC50 [12]: 2.75 µM (active); IC50 [13]: 1.99 µM (inconclusive); IC50 [14]: > 66.6 µM (inactive); AC50 [15]: > 380 µM (inactive); EC50 [16]: 0.766 µM (active); EC50 [17]: 45.9 µM (active); IC50 [18]: > 64 µM (inactive)
